Tests used:
Assay in all cases: radiometric filter-binding kinase assay, Kinase HotSpot
Conditions in all cases: compound 0.5 µM; ATP 10 µM
[1] = biological target: FLT1 (human) (UniProt P17948)
[2] = biological target: NTRK1 (human) (UniProt P04629)
[3] = biological target: CAMKK1 (human) (UniProt Q8N5S9)
[4] = biological target: SYK (human) (UniProt P43405)
[5] = biological target: PLK2 (human) (UniProt Q9NYY3)
[6] = biological target: GSK3B (human) (UniProt P49841)
[7] = biological target: ADRBK1 (human) (UniProt P25098)
[8] = biological target: NUAK2 (human) (UniProt Q9H093)
[9] = biological target: AURKC (human) (UniProt Q9UQB9)
[10] = biological target: SRPK2 (human) (UniProt P78362)
[11] = biological target: CDK2 CCNA2 (human) (UniProt P24941+P20248)
[12] = biological target: AKT2 (human) (UniProt P31751)
[13] = biological target: MAP3K5 (human) (UniProt Q99683)
[14] = biological target: MAPK13 (human) (UniProt O15264)
[15] = biological target: PKN1 (human) (UniProt Q16512)
[16] = biological target: SRPK3 (human) (UniProt Q9UPE1)
[17] = biological target: CSNK1D (human) (UniProt P48730)
[18] = biological target: HIPK4 (human) (UniProt Q8NE63)
[19] = biological target: CHUK (human) (UniProt O15111)
[20] = biological target: NEK2 (human) (UniProt P51955)
[21] = biological target: MAP4K4 (human) (UniProt O95819)
[22] = biological target: GSG2 (human) (UniProt Q8TF76)
[23] = biological target: BTK (human) (UniProt Q06187)
Sequence of BTK (human) (Q06187 whole entry, looked up): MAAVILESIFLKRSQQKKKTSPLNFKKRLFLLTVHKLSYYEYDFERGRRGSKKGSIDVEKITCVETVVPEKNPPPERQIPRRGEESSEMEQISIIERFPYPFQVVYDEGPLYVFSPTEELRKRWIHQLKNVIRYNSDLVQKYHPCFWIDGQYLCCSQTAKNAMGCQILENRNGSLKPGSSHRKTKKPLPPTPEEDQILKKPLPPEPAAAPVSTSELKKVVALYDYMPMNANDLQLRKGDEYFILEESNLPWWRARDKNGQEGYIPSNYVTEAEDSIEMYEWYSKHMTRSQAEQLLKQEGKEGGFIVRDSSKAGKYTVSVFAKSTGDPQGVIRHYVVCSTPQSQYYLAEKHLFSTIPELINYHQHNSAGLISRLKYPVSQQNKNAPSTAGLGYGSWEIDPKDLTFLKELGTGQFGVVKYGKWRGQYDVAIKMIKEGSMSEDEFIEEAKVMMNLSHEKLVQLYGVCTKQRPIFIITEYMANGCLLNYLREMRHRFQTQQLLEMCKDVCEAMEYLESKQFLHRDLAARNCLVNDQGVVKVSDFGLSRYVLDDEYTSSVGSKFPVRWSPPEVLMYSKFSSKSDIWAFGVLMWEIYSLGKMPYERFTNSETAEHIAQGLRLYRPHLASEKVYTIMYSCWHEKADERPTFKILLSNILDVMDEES

[24] = biological target: ITK (human) (UniProt Q08881)
[25] = biological target: CAMK2G (human) (UniProt Q13555)
Sequence of CAMK2G (human) (Q13555 whole entry, looked up): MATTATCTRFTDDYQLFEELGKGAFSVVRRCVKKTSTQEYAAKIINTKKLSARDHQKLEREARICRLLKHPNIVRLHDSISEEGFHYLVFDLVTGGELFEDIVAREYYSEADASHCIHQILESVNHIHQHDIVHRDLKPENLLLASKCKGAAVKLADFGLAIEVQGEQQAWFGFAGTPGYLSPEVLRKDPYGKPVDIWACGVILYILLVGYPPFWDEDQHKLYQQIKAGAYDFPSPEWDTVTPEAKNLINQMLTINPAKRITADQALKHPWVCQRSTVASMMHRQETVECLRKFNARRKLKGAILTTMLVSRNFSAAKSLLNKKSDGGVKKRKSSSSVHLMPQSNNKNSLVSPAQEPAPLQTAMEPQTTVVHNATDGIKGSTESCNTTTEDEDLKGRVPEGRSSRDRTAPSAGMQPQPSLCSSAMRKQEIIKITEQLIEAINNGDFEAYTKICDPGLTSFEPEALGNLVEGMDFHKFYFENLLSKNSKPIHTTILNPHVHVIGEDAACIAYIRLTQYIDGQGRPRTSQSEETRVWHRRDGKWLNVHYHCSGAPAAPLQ

[26] = biological target: FYN (human) (UniProt P06241)
[27] = biological target: JAK2 JH1 JH2 (human) (UniProt O60674)
[28] = biological target: TYK2 JH1 catalytic (human) (UniProt P29597)
[29] = biological target: MAP3K14 (human) (UniProt Q99558)
Sequence of MAP3K14 (human) (Q99558 whole entry, looked up): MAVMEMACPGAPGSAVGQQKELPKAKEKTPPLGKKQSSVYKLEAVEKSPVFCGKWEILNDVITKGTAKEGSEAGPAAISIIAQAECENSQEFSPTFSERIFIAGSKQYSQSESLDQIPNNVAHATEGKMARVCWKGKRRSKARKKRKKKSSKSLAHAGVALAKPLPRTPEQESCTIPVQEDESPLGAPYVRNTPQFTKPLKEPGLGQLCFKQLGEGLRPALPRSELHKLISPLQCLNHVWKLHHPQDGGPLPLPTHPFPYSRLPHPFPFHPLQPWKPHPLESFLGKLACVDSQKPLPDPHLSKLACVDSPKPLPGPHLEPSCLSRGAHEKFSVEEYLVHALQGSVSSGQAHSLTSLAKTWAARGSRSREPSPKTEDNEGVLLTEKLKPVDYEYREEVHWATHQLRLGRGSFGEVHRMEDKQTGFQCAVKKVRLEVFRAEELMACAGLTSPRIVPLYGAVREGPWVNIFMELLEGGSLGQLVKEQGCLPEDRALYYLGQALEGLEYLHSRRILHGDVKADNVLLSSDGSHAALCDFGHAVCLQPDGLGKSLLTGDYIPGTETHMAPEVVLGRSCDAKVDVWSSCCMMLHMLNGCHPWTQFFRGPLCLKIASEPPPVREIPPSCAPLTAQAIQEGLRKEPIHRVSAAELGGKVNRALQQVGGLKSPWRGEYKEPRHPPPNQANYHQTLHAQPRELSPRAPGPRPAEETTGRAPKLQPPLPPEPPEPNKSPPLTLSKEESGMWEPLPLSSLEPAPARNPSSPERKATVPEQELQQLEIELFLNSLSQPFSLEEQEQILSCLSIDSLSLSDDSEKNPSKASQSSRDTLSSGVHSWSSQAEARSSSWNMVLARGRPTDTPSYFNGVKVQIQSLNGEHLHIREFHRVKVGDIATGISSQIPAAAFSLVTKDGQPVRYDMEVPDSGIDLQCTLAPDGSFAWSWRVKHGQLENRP

[30] = biological target: RAF1 (human) (UniProt P04049)
[31] = biological target: CDK2 CCNE1 (human) (UniProt P24941+P24864)
[32] = biological target: STK4 (human) (UniProt Q13043)
[33] = biological target: MERTK (human) (UniProt Q12866)
[34] = biological target: HIPK1 (human) (UniProt Q86Z02)
[35] = biological target: PBK (human) (UniProt Q96KB5)
[36] = biological target: CDK4 CCND3 (human) (UniProt P30281+P11802)
[37] = biological target: IRAK1 (human) (UniProt P51617)
[38] = biological target: MAP3K10 (human) (UniProt Q02779)
[39] = biological target: ZAP70 (human) (UniProt P43403)
[40] = biological target: CDK5 CDK5R1 p35 (human) (UniProt Q00535+Q15078)
[41] = biological target: TSSK2 (human) (UniProt Q96PF2)
[42] = biological target: TSSK1B (human) (UniProt Q9BXA7)

Sequence of FLT1 (human) (P17948 whole entry, looked up): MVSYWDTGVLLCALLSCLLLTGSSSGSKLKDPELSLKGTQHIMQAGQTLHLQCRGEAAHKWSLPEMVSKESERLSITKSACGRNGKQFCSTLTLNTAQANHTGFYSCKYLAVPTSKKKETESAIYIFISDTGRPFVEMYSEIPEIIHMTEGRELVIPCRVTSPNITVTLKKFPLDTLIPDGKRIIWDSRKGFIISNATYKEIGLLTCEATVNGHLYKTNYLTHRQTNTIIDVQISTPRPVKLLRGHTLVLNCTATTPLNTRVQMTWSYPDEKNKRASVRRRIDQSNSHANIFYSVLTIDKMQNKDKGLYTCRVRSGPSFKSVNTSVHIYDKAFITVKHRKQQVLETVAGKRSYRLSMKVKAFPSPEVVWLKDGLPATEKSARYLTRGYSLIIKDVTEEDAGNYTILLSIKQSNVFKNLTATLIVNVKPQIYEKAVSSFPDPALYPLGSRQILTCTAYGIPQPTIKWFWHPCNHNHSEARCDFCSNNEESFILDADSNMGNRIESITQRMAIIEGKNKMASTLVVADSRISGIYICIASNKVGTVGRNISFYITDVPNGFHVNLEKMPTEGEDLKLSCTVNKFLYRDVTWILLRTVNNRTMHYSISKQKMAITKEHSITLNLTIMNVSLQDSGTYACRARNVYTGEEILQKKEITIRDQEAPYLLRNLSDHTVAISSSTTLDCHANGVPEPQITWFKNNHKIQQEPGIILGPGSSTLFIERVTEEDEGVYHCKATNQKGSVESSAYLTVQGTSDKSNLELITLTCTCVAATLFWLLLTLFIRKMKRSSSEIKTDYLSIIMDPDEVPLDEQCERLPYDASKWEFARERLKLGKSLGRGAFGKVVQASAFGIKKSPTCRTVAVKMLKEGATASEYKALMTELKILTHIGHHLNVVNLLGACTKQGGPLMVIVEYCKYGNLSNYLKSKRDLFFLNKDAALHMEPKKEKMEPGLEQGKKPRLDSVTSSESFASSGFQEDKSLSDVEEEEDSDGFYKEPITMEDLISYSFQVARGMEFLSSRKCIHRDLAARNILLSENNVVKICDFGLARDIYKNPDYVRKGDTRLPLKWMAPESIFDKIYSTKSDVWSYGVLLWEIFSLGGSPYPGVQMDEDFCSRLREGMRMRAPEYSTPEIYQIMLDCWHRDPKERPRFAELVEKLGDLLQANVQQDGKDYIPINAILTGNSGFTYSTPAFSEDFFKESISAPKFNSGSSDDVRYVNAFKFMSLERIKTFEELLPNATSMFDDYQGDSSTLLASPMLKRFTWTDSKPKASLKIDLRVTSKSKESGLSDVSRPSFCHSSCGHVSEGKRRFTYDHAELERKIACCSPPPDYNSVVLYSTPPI
Sequence of CAMKK1 (human) (Q8N5S9 whole entry, looked up): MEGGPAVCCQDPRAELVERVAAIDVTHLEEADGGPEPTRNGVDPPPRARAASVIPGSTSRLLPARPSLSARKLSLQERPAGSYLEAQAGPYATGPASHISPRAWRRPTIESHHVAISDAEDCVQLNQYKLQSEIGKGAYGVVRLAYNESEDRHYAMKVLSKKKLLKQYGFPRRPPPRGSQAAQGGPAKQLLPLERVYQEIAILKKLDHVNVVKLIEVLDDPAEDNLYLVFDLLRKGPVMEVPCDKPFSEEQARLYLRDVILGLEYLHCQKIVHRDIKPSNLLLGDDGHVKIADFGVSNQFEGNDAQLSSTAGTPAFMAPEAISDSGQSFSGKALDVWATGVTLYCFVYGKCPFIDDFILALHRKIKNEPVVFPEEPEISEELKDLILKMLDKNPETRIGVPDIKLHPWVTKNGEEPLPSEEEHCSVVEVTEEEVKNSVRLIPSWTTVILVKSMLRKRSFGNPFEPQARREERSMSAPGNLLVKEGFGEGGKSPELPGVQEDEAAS
Sequence of NTRK1 (human) (P04629 whole entry, looked up): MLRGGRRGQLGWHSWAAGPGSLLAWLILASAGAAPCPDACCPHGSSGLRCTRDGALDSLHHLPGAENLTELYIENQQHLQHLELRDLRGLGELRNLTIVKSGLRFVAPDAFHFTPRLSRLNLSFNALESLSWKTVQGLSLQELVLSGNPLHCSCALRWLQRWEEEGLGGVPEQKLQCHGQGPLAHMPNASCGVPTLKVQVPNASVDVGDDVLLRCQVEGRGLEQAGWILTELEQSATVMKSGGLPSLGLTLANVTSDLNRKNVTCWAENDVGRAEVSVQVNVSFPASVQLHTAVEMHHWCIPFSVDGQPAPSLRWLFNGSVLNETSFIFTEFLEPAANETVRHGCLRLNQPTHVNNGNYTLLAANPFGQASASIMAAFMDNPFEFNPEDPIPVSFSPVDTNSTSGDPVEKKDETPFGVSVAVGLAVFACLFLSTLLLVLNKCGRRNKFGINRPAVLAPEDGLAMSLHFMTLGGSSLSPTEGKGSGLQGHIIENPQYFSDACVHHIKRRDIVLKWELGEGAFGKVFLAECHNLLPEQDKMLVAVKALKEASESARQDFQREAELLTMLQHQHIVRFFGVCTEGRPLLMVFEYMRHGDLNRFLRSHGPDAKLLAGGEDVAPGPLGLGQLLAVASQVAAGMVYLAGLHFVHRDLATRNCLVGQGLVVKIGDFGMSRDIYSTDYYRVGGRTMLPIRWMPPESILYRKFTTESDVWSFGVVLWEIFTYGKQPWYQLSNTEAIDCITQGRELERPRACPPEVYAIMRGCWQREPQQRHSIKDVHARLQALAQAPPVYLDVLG

O=C(Nc1cccc(Nc2cc(Nc3cccc(C(F)(F)F)c3)ncn2)c1)C1CC1
residual activity [1]: 99.4% | residual activity [2]: 99.6% | residual activity [3]: 116% | residual activity [4]: 94.9% | residual activity [5]: 109% | residual activity [6]: 114% | residual activity [7]: 97.9% | residual activity [8]: 103% | residual activity [9]: 104% | residual activity [10]: 92% | residual activity [11]: 99.5% | residual activity [12]: 103% | residual activity [13]: 104% | residual activity [14]: 106% | residual activity [15]: 98.9% | residual activity [16]: 103% | residual activity [17]: 98.9% | residual activity [18]: 101% | residual activity [19]: 95.6% | residual activity [20]: 99.5% | residual activity [21]: 102% | residual activity [22]: 96.4% | residual activity [23]: 101% | residual activity [24]: 97.2% | residual activity [25]: 96.1% | residual activity [26]: 100% | residual activity [27]: 99.5% | residual activity [28]: 102% | residual activity [29]: 77.9% | residual activity [30]: 98.4% | residual activity [31]: 96.7% | residual activity [32]: 99% | residual activity [33]: 97.3% | residual activity [34]: 99.7% | residual activity [35]: 103% | residual activity [36]: 105% | residual activity [37]: 111% | residual activity [38]: 101% | residual activity [39]: 93% | residual activity [40]: 99.5% | residual activity [41]: 103% | residual activity [42]: 104%

Cn1cnc2cc3c(Nc4cccc(Br)c4)ncnc3cc21
residual activity [1]: 77.4% | residual activity [2]: 90.8% | residual activity [3]: 107% | residual activity [4]: 98.5% | residual activity [5]: 101% | residual activity [6]: 101% | residual activity [7]: 100% | residual activity [8]: 102% | residual activity [9]: 96.5% | residual activity [10]: 97.1% | residual activity [11]: 90.1% | residual activity [12]: 106% | residual activity [13]: 110% | residual activity [14]: 101% | residual activity [15]: 89.1% | residual activity [16]: 94.9% | residual activity [17]: 93.9% | residual activity [18]: 88.6% | residual activity [19]: 89.7% | residual activity [20]: 103% | residual activity [21]: 52.1% | residual activity [22]: 89.4% | residual activity [23]: 86.8% | residual activity [24]: 102% | residual activity [25]: 104% | residual activity [26]: 85.9% | residual activity [27]: 103% | residual activity [28]: 112% | residual activity [29]: 90.6% | residual activity [30]: 98.6% | residual activity [31]: 78.2% | residual activity [32]: 94.2% | residual activity [33]: 77.5% | residual activity [34]: 108% | residual activity [35]: 102% | residual activity [36]: 95.9% | residual activity [37]: 80.5% | residual activity [38]: 94% | residual activity [39]: 110% | residual activity [40]: 84.6% | residual activity [41]: 111% | residual activity [42]: 104%

Oc1ccc(Nc2nc(-c3ccc(Cl)cc3)cs2)cc1
residual activity [1]: 82.3% | residual activity [2]: 104% | residual activity [3]: 124% | residual activity [4]: 93.8% | residual activity [5]: 105% | residual activity [6]: 110% | residual activity [7]: 100% | residual activity [8]: 137% | residual activity [9]: 97% | residual activity [10]: 104% | residual activity [11]: 98.6% | residual activity [12]: 96.4% | residual activity [13]: 108% | residual activity [14]: 107% | residual activity [15]: 99.5% | residual activity [16]: 98.1% | residual activity [17]: 105% | residual activity [18]: 101% | residual activity [19]: 104% | residual activity [20]: 110% | residual activity [21]: 88.9% | residual activity [22]: 100% | residual activity [23]: 107% | residual activity [24]: 95.4% | residual activity [25]: 90.6% | residual activity [26]: 102% | residual activity [27]: 101% | residual activity [28]: 110% | residual activity [29]: 102% | residual activity [30]: 95.7% | residual activity [31]: 91.9% | residual activity [32]: 106% | residual activity [33]: 97.1% | residual activity [34]: 100% | residual activity [35]: 100% | residual activity [36]: 108% | residual activity [37]: 123% | residual activity [38]: 100% | residual activity [39]: 94.7% | residual activity [40]: 104% | residual activity [41]: 102% | residual activity [42]: 119%

Cc1nc2cc3nc(-c4cccs4)cnc3cc2n1C
residual activity [1]: 93.6% | residual activity [2]: 113% | residual activity [3]: 127% | residual activity [4]: 94.3% | residual activity [5]: 99.4% | residual activity [6]: 109% | residual activity [7]: 83.7% | residual activity [8]: 96.7% | residual activity [9]: 93.3% | residual activity [10]: 104% | residual activity [11]: 104% | residual activity [12]: 91.5% | residual activity [13]: 98.9% | residual activity [14]: 99.7% | residual activity [15]: 96.5% | residual activity [16]: 96.6% | residual activity [17]: 95.9% | residual activity [18]: 103% | residual activity [19]: 96.2% | residual activity [20]: 97% | residual activity [21]: 84.5% | residual activity [22]: 108% | residual activity [23]: 101% | residual activity [24]: 96.7% | residual activity [25]: 101% | residual activity [26]: 107% | residual activity [27]: 106% | residual activity [28]: 102% | residual activity [29]: 97.4% | residual activity [30]: 104% | residual activity [31]: 91.4% | residual activity [32]: 97.4% | residual activity [33]: 90.4% | residual activity [34]: 103% | residual activity [35]: 98.9% | residual activity [36]: 101% | residual activity [37]: 113% | residual activity [38]: 101% | residual activity [39]: 93.3% | residual activity [40]: 107% | residual activity [41]: 98.2% | residual activity [42]: 91.3%

Reference: the kinase profiling compilation of Christmann-Franck et al. (2016)
